This note sets out measurements from patent US6294568A, “5-arylpyrrole derivatives” (priority 1997, dated 2001).

The structures appear in SMILES notation.

The test system of one test is carrageenan footedema. Description: Carrageenan Footedema Suppression Test. Type of test: in vivo, SD rats. To be noted: oral; paw volume three hours after carrageenan administration. On the procedure:
The carrageenin footedema suppression test was conducted according to the method of Winter et al. (J. Pharm. Exp. Ther., Vol.141, 369 (1963)). The test samples suspended in Tween 80 were administered orally to SD rats (6 rats per 1 group) in an amount of 1 ml per 100 g of the body weight, while only the solvent was administered in the same manner as above as a control. One hour after the administration, 1% carrageenan physiological saline was injected subcutaneously to the rats in the plantar area of the right hind paw. Three hours after the carrageenan administration, the paw volumes were measured and the edematization rate (%) was calculated with Formula 1 and then edematization suppression rate (%) was calculated with Formula 2.
Edematization rate (%)=((paw volume after carrageenan injection- paw volume before carrageenan injection)/(paw volume before carrageenan injection)×100 Formula: 1
Edematization suppression rate (%)=((edematization rate of control-
edematization rate of test samples)/edematization rate of […]

The target in another test is T1, Human COX-1 (Homo sapiens, UniProt P23219).
T1 construct: endogenous in cells; host or cells: whole blood of a healthy human donor (own knowledge: TXB2 of clotting blood comes from platelet COX-1)
Description: Human COX-1 Inhibitory Activity Test (TXB2 in blood). The test is classed as cell-based. To be noted: IC50 from Hill Plot. On the procedure:
(§1) COX-1 and COX-2 activities were measured according to the method of Patrignani et al. (J. Pharm. Exp. Ther. Vol. 271, 1705 (1994)).
(1) COX-1 activity was measured in the following procedure. […] The serum obtained by 10 minutes of centrifugation at 2000 rpm at 4° C. was stored at -40° C. until the measurement of the amount of thromboxane B2 (TXB2). The test samples, which had been dissolved in ethanol and diluted to the specified concentrations, were previously dispensed into the glass test tubes, and the solvent was evaporated to dryness by Centrifugal Vaporizer (CVE-200D, manufactured by Tokyo Rika Mfg. Co., Ltd.) so that the test samples were added to the plasma.
(3) The measurement for the TXB2 content was conducted in the following procedure. In a part of a 96 well plate coated with anti-rabbit IgG antibody, 2 wells were allotted respectively to blank well, Non-specific Binding (NSB) well, Maximum Binding (B0) well, standard wells at 7 concentrations of TXB2 (1000 pg/ml) in doubling dilution ranging from 1000-15.6 pg/ml. The rest of the wells were used for the measurement of the samples. EIA buffer was added to the NSB wells (100 μl ) and B0 wells (50 μl), respectively. 50 μl of each of the standard dilution was added in an order from thinner to thicker concentrations. Each of the samples was added to the rest of the wells in an amount of 50 μl. Then, 50 μl of TXB2 tracer was added to each of the wells except for the blank wells. Further, 50 μl of TXB2 antibody was added to each of the wells except for the NSB wells and blank wells, then the well plate was covered with a plastic film and the reaction continued for 18 hours at room temperature. When the reaction was terminated, the wells were washed 5 times with a wash buffer. 200 μl of Elman's reagent was added to each of the wells and then the well plate was covered with a plastic film and developed for 60 minutes in a dark place. The absorbance at 405 nm was measured by an Immuno Reader (NJ-2000, manufactured by Nippon Intermed Co., Ltd.). From the measurement result, %B/B0 was calculated and, applying it to the approximation formula of Hill Plot, the concentration of the samples was determined to be 2,000 times concentration. […]

Another test deals with T2, Human COX-2 (Homo sapiens, UniProt P35354).
T2 construct: endogenous in cells; host or cells: heparinised whole blood of a healthy human donor pretreated with aspirin, stimulated with LPS (own knowledge: COX-2 is induced in monocytes)
T2 sequence (P35354 18-604): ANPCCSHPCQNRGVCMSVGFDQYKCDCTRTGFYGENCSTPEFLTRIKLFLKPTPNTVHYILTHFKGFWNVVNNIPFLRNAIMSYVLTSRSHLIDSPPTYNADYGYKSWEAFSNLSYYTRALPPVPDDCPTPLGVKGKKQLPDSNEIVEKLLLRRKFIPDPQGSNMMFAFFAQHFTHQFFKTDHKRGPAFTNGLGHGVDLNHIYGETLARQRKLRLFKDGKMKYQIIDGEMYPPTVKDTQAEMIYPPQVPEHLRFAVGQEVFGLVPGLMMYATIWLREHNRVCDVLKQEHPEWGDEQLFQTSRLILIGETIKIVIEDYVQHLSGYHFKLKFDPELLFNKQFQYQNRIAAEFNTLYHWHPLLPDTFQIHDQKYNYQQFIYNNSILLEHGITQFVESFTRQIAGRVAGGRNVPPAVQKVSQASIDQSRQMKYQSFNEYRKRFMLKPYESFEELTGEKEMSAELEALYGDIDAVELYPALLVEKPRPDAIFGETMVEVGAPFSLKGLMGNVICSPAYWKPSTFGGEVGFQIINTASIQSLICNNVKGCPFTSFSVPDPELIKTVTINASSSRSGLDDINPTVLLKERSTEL
Description: Human COX-2 Inhibitory Activity Test (LPS-induced PGE2 in blood). Type of test: cell-based. To be noted: for IC50: human blood, LPS, PGE2, IC50 from Hill Plot; for COX-1/COX-2: ratio of IC50 COX-1 to COX-2. Here is the method:
as §1
(2) COX-2 activity was measured in the following procedure. To blood collected from a healthy normal who had taken 330 mg of aspirin 48 hours before the blood collection in order to inhibit the COX-1 activity, 10 unit/ml of sodium heparin was added, and then pipetted into glass test tubes by 1 ml. 10 μg/ml of Lipopolysaccharide (LPS) was added thereto and the plasma obtained by the specified operation was stored at -40° C. until the measurement for the amount of prostaglandin E2 (PGE2). Test samples containing the test samples were treated in the same manner of operation as described above.
(4) The measurement for the PGE2 content was conducted in the following procedure. In a part of 96 well plate coated with goat anti-mouse antibody, 2 wells were alloted respectively to a blank well, Non-specific Binding (NSB) well, Maximum Binding (B0) well, standard wells at seven concentrations of PGE2 (1000 pg/ml) in doubling dilution ranging from 1000-15.6 pg/ml. The rest of the wells were used for the sample measurement. EIA buffer was added to the NSB wells (100 μl) and to the B0 wells (50 μl), respectively. 50 μl of each of the standard dilution was added in an order from thinner to thicker concentrations. Each of the samples was added to the rest of the wells in an amount of 50 μl. Then, 50 μl of PGE2 tracer was added to each of the wells except for blank wells. Further, 50 μl PGE2 monoclonal antibody was added to each of the wells except for the NSB wells and blank wells, then the well plate was covered with a plastic film and the reaction continued at room temperature for 18 hours. When the reaction was terminated, the wells were washed 5 times with a wash buffer. 200 μl of Elman's reagent was added to each of the wells, and then the well plate was covered with a plastic film and developed for 60 minutes in a dark place. The absorbance at 405 nm was measured by an Immuno Reader (NJ-2000, manufactured by Nippon Intermed Co., Ltd.). From the measurement result, %B/B0 was calculated and, applying it to the approximation formula of Hill Plot, the concentration of the samples was determined to be 40 times concentration. The dilution was conducted with an EIA buffer throughout the Test Example 3.

T1 sequence (P23219 24-599): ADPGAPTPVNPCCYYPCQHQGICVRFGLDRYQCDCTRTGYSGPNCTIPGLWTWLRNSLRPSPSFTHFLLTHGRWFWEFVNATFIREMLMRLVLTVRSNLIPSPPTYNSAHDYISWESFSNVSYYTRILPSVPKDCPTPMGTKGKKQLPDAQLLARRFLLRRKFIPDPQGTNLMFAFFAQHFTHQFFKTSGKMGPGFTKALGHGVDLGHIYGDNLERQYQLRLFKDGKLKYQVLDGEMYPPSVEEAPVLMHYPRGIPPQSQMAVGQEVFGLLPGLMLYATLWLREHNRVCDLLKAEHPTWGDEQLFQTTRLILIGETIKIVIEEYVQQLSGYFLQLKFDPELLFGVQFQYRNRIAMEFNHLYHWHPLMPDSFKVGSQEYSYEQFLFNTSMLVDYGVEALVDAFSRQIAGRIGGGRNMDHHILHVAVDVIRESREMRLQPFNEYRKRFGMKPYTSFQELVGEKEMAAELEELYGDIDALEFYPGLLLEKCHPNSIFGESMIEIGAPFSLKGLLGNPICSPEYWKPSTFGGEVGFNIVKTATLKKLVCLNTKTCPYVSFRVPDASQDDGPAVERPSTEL

As for `Cc1cccc(-c2cc(C)[nH]c2-c2ccc(S(C)(=O)=O)cc2)c1` [Preparation Example 21, 4-(3-methylphenyl)-2-methyl-5-(4-methylsulfonylphenyl)-1H-pyrrole], the “Edematization Suppression rate” value in the test on carrageenan footedema worked out at 31.6%. The compound also gave an IC50 against Human COX-1 of 39200 nM. At Human COX-2, the IC50 is 129 nM and the COX-1/COX-2 is 304.

With `Cc1cc(-c2ccc(N(C)C)c(C)c2)c(-c2ccc(S(C)(=O)=O)cc2)[nH]1` [Preparation Example 32, 4-(4-N,N-dimethylamino-3-methylphenyl)-2-methyl-5-(4-methylsulfonylphenyl)-1H-pyrrole], at Human COX-2, 442 nM corresponded to half-maximal inhibition (IC50) and the COX-1/COX-2 is on record as over 226.

In the case of `Cc1cc(-c2ccc(F)cc2F)c(-c2ccc(S(C)(=O)=O)cc2)[nH]1` [Preparation Example 7, 4-(2,4-difluorophenyl)-2-methyl-5-(4-methylsulfonylphenyl)-1H-pyrrole], in the test with carrageenan footedema, the “Edematization Suppression rate” value is on record as 34.5%. Half-maximal inhibition against Human COX-1 (IC50) required 30600 nM. Moreover, on Human COX-2, the IC50 was found to be 144 nM and the COX-1/COX-2 worked out at 212.

For `COc1ccc(-c2cc(C)[nH]c2-c2ccc(OC)cc2)cc1` [Control compound (a), 4,5-bis(4-methoxyphenyl)-2-methyl-1H-pyrrole, reference compound], the “Edematization Suppression rate” value in the test with carrageenan footedema turned out to be 23.4%. The compound also had an IC50 on Human COX-1 of 1 nM. For the same compound, at Human COX-2, the IC50 came to 4820 nM and the COX-1/COX-2 was under 0.1.

With `Cc1cc(C#Cc2ccccc2)c(-c2ccc(S(C)(=O)=O)cc2)[nH]1` [Preparation Example 48, 4-phenylethynyl-2-methyl-5-(4-methylsulfonylphenyl)-1H-pyrrole], the “Edematization Suppression rate” value with carrageenan footedema amounted to 40.1%. Besides, on Human COX-2, the IC50 is 300 nM and the COX-1/COX-2 was over 339.

For the compound `Cc1cc(-c2cccc(N(C)C)c2)c(-c2ccc(S(C)(=O)=O)cc2)[nH]1` [Preparation Example 23, 4-(3-dimethylaminophenyl)-2-methyl-5-(4-methylsulfonylphenyl)-1H-pyrrole], on Human COX-2, the IC50 came to 346 nM and the COX-1/COX-2 is on record as over 289.

For the compound `Cc1cc(F)cc(-c2cc(C)[nH]c2-c2ccc(S(C)(=O)=O)cc2)c1` [Preparation Example 53, 4-(3-fluoro-5-methylphenyl)-2-methyl-5-(4-methylsulfonylphenyl)-1H-pyrrole], on Human COX-2, the IC50 is 162 nM and the COX-1/COX-2 is given as 617.

`Cc1cc(-c2ccc(F)c(F)c2F)c(-c2ccc(S(C)(=O)=O)cc2)[nH]1` [Preparation Example 52, 4-(2,3,4-trifluorophenyl)-2-methyl-5-(4-methylsulfonylphenyl)-1H-pyrrole] displayed an IC50 against Human COX-1 of 50400 nM. Moreover, on Human COX-2, the IC50 worked out at 110 nM and the COX-1/COX-2 came to 458.

As to `Cc1cc(-c2cccc(Cl)c2)c(-c2ccc(S(C)(=O)=O)cc2)[nH]1` [Preparation Example 4, 4-(3-chlorophenyl)-2-methyl-5-(4-methylsulfonylphenyl)-1H-pyrrole], in the test with carrageenan footedema, the “Edematization Suppression rate” value is 30.1%. This compound showed an IC50 against Human COX-1 of over 100000 nM. Also, on Human COX-2, half-maximal inhibition (IC50) was put at 164 nM and the COX-1/COX-2 is over 610.

Regarding `COc1ccc(-c2cc(C)[nH]c2-c2ccc(S(C)(=O)=O)cc2)cc1Cl` [Preparation Example 28, 4-(3-chloro-4-methoxyphenyl)-2-methyl-5-(4-methylsulfonylphenyl)-1H-pyrrole], at Human COX-2, the IC50 was found to be 310 nM and the COX-1/COX-2 is over 323.

For the compound `Cc1cc(-c2ccc(F)c(F)c2)c(-c2ccc(S(C)(=O)=O)cc2)[nH]1` [Preparation Example 8, 4-(3,4-difluorophenyl)-2-methyl-5-(4-methylsulfonylphenyl)-1H-pyrrole], the “Edematization Suppression rate” value with carrageenan footedema worked out at 26.7%. At Human COX-1, the IC50 was found to be 26700 nM. Besides, on Human COX-2, the IC50 is 219 nM and the COX-1/COX-2 is over 457.

As for `Cc1cc(-c2ccc(F)c(Cl)c2)c(-c2ccc(S(C)(=O)=O)cc2)[nH]1` [Preparation Example 10, 4-(3-chloro-4-fluorophenyl)-2-methyl-5-(4-methylsulfonylphenyl)-1H-pyrrole], in the test on carrageenan footedema, the “Edematization Suppression rate” value is given as 25.7%. At Human COX-1, this compound returned an IC50 of 84000 nM. For the same compound, at Human COX-2, the IC50 is 274 nM and the COX-1/COX-2 is 307.

As for `CS(=O)(=O)c1ccc(-c2[nH]c(CCC(=O)O)cc2-c2ccc(F)cc2)cc1` [Preparation Example 50, 4-(4-fluorophenyl)-5-(4-methylsulfonylphenyl)-1H-pyrrole-2-propionic acid], the “Edematization Suppression rate” value in the test with carrageenan footedema is 28.9%. Further, at Human COX-2, the IC50 amounted to 454 nM and the COX-1/COX-2 was over 220.

Turning to `CCc1cc(-c2ccc(F)cc2)c(-c2ccc(S(C)(=O)=O)cc2)[nH]1` [Preparation Example 11, 2-ethyl-4-(4-fluorophenyl)-5-(4-methylsulfonylphenyl)-1H-pyrrole], the IC50 at Human COX-1 is 9900 nM. Further, on Human COX-2, half-maximal inhibition (IC50) required 84 nM and the COX-1/COX-2 is given as 118.

Turning to `Cc1cc(-c2ccc(N(C)C)cc2)c(-c2ccc(S(C)(=O)=O)cc2)[nH]1` [Preparation Example 19, 4-(4-dimethylaminophenyl)-2-methyl-5-(4-methylsulfonylphenyl)-1H-pyrrole], the “Edematization Suppression rate” value in the test with carrageenan footedema was determined as 43.2%. For the same compound, at Human COX-2, the IC50 was 747 nM and the COX-1/COX-2 is over 134.

In general, IC50 refers to the concentration at which inhibition is half-maximal. Low values mean higher potency, high ones lower potency.
